Assay results: ChEMBL document CHEMBL5576077, “A small-molecule degron with a phenylpropionic acid scaffold” (Bioorg Med Chem, 2024)
Blank lines part the entries; values can stand above or below the compound they belong to. Active and inactive are the calls of the source. No cut-off for these calls is given here.

Experiments:
[1] = target: T1, S-phase kinase-associated protein 2/Haloalkane dehalogenase (Homo sapiens) (UniProt Q13309+P0A3G3); assay: PROTAC activity at Skp2 in HEK293 cells/HaloTag7 fusion protein (unknown origin) stably expressed in HEK293 cells assessed as protein degradation by measuring test to control ratio at 3 uM incubated for 24 hrs by Western blot analysis; assay type: cell-based
[2] = target: T1, S-phase kinase-associated protein 2/Haloalkane dehalogenase (Homo sapiens); assay: PROTAC activity at Skp2 in HEK293 cells/HaloTag7-ELuc fusion protein (unknown origin) stably expressed in HEK293 cells assessed as protein degradation at 1 to 10 uM incubated for 24 hrs by Western blot analysis; assay type: cell-based; details: dose 1-10 µM
[3] = target: T1, S-phase kinase-associated protein 2/Haloalkane dehalogenase (Homo sapiens); assay: PROTAC activity at Skp2 in HEK293 cells/HaloTag7 fusion protein (unknown origin) stably expressed in HEK293 cells assessed as protein degradation by measuring test to control ratio at 0.3 uM incubated for 24 hrs by Western blot analysis; assay type: cell-based
[4] = target: T1, S-phase kinase-associated protein 2/Haloalkane dehalogenase (Homo sapiens); assay: PROTAC activity at Skp2 in HEK293 cells/HaloTag7 fusion protein (unknown origin) stably expressed in HEK293 cells assessed as protein degradation by measuring test to control ratio at 1 uM incubated for 24 hrs by Western blot analysis; assay type: cell-based
[5] = target: T2, S-phase kinase-associated protein 2/Bifunctional ligase/repressor BirA (Homo sapiens) (UniProt P06709+Q13309); assay: PROTAC activity at Skp2 in HeLa cells/N-terminal HaloTag7-fused TurboID (unknown origin) stably expressed in HeLa cells assessed as protein degradation at 30 uM incubated for 8 hrs by Western blot analysis; assay type: cell-based
[6] = target: T2, S-phase kinase-associated protein 2/Bifunctional ligase/repressor BirA (Homo sapiens); assay: PROTAC activity at Skp2 in HeLa cells/N-terminal HaloTag7-fused TurboID (unknown origin) stably expressed in HeLa cells assessed as protein degradation at 30 uM incubated for 3 hrs by Western blot analysis; assay type: cell-based
[7] = target: T2, S-phase kinase-associated protein 2/Bifunctional ligase/repressor BirA (Homo sapiens); assay: PROTAC activity at Skp2 in HeLa cells/N-terminal HaloTag7-fused TurboID (unknown origin) stably expressed in HeLa cells assessed as protein degradation at 30 uM incubated for 3 to 8 hrs in presence of MG132 by Western blot analysis; assay type: cell-based; details: time 3-8 hrs
[8] = target: T2, S-phase kinase-associated protein 2/Bifunctional ligase/repressor BirA (Homo sapiens); assay: PROTAC activity at Skp2 in HeLa cells/N-terminal HaloTag7-fused TurboID (unknown origin) stably expressed in HeLa cells assessed as protein degradation at 30 uM incubated for 3 to 8 hrs in presence of Epoxomicin by Western blot analysis; assay type: cell-based; details: time 3-8 hrs
[9] = target: T2, S-phase kinase-associated protein 2/Bifunctional ligase/repressor BirA (Homo sapiens); assay: PROTAC activity at Skp2 in HeLa cells/N-terminal HaloTag7-fused TurboID (unknown origin) stably expressed in HeLa cells assessed as protein degradation at 30 uM incubated for 3 to 8 hrs in presence of BafA by Western blot analysis; assay type: cell-based; details: time 3-8 hrs
[10] = target: T2, S-phase kinase-associated protein 2/Bifunctional ligase/repressor BirA (Homo sapiens); assay: PROTAC activity at Skp2 in HeLa cells/N-terminal HaloTag7-fused TurboID (unknown origin) stably expressed in HeLa cells assessed as protein degradation at 30 uM incubated for 3 to 8 hrs in presence of NH4Cl by Western blot analysis; assay type: cell-based; details: time 3-8 hrs
[11] = target: T2, S-phase kinase-associated protein 2/Bifunctional ligase/repressor BirA (Homo sapiens); assay: PROTAC activity at Skp2 in HeLa cells/N-terminal HaloTag7-fused TurboID (unknown origin) stably expressed in HeLa cells assessed as protein degradation at 30 uM incubated for 8 hrs in presence of MLN4924 by Western blot analysis; assay type: cell-based
[12] = Thermal stabilization of GST-fused HaloTag fusion protein (unknown origin) at 100 uM by SYPRO Orange dye based TSA assay

T/C [1]: 81
Compound: O=C(O)CCc1ccc(OCCOCCOCCOCCCCCCCl)cc1/C=C1\SC(=S)N(Cc2cccnc2)C1=O

Activity [2]: Active
Compound: O=C(O)CCc1ccc(OCCCOCCCOCCCCCCCl)cc1/C=C1\SC(=S)N(Cc2cccnc2)C1=O

T/C [3]: 111 | T/C [4]: 121 | T/C [1]: 103
Compound: O=C(O)COc1ccc(OCCOCCOCCOCCOCCOCCCCCCCl)cc1/C=C1\SC(=S)N(Cc2cccnc2)C1=O

Activity [5]: inactive
Compound: O=C(O)COc1ccc(O)cc1/C=C1\SC(=S)N(Cc2cccnc2)C1=O

T/C [3]: 82 | T/C [4]: 64 | T/C [1]: 37
Compound: O=C(O)CCc1ccc(OCCOCCOCCOCCOCCOCCCCCCCl)cc1/C=C1\SC(=S)N(Cc2cccnc2)C1=O

T/C [1]: 25 | Activity [6]: Active | Activity [7]: inactive | Activity [8]: inactive | Activity [9]: Active | Activity [10]: Active | Activity [11]: Active | Activity [12]: Active
Compound: O=C(O)CCc1ccc(OCCOCCOCCOCCOCCCCCCCl)cc1/C=C1\SC(=S)N(Cc2cccnc2)C1=O

Activity [5]: inactive
Compound: OCCOCCOCCOCCOCCCCCCCl
